Laboratory results from US6713261B1, “Method for assessing genotoxicity of a compound” (Institut National de la Sante et de la Recherche Medicale, priority 1999, dated 2004).
Where two headings read alike, the source gives them in different places. Starred links: 1 amine or outer side, 2 acyl side, 3 side chain; linkers in the order of their positions; H or OH if unused. Positions of bridges follow the written chain, without caps; N, C: chain ends. Non-standard residues stand in square brackets, D forms with d. Residues, ends and D or L forms follow the SMILES beside them. Chains are numbered I, II in the order given. Actinocin(9to1) = Cc1c2oc3c(C)ccc(C(=O)[*:1])c3nc-2c(C(=O)[*:2])c(N)c1=O; NMeV = CN[C@H](C(=O)O)C(C)C; Sar = CNCC(=O)O

Legend:
[1] = tested on: CTLL-2 cells; assay: Measurement of apoptosis (Annexin V-FITC, YOPRO-1) in CTLL-2 cells; format: cell-based, mouse
[2] = tested on: CTLL-2-bcl2 cells; assay: Measurement of apoptosis (Annexin V-FITC, YOPRO-1) in CTLL-2-bcl2 cells; format: cell-based, mouse; settings: for induction of apoptosis (result in words): in parallel to micronucleus test
[3] = tested on: CTLL-2 cells; assay: Micronucleus test without metabolic activation in CTLL-2 cells; settings: for formation of micronuclei / micronucleated cell frequency (result in words): harvested at 15th hour, without metabolic activation
[4] = tested on: CTLL-2-bcl2 cells; assay: Micronucleus test without metabolic activation in CTLL-2-bcl2 cells; settings: harvested at 15th hour
[5] = tested on: CTLL-2 cells; settings: after metabolic activation
[6] = tested on: CTLL-2-bcl2 cells; settings: after metabolic activation
[7] = tested on: CTLL-2 cells; format: cell-based, mouse; settings: after metabolic activation
[8] = tested on: CTLL-2-bcl2 cells; format: cell-based, mouse; settings: after metabolic activation
[9] = tested on: CTLL-2 cells; assay: Metaphase analysis test in CTLL-2 cells; format: cell-based, mouse; settings: for aberrant cells: CTLL-2
[10] = tested on: human lymphocytes; settings: 44 hours
[11] = tested on: human lymphocytes; settings: human lymphocytes treated 44 hours; from 250 μM of dexamethasone; control 2%
[12] = tested on: CTLL-2 cells; settings: mouse, 15 h
[13] = tested on: CTLL-2-bcl2 cells; settings: mouse, 15 h
[14] = CTLL-2 cells, in parallel to micronucleus test

With `Cc1c2oc3c(C)ccc(C(=O)N[C@@H]4C(=O)N[C@H](C(C)C)C(=O)N5CCC[C@H]5C(=O)N(C)CC(=O)N(C)[C@@H](C(C)C)C(=O)O[C@@H]4C)c3nc-2c(C(=O)N[C@@H]2C(=O)N[C@H](C(C)C)C(=O)N3CCC[C@H]3C(=O)N(C)CC(=O)N(C)[C@@H](C(C)C)C(=O)O[C@@H]2C)c(N)c1=O` [Actinomycin D] (I: T[dV]P[Sar][NMeV] / II: T[dV]P[Sar][NMeV]; ester I:1-I:C, II:1-II:C; linker I:N-II:N via Actinocin(9to1)) the “induction of apoptosis (result in words)” value [1, 14] was “induction of apoptosis”, the “induction of apoptosis (result in words)” value [2] was “neither apoptosis nor genotoxicity is observed” and the “formation of micronuclei / micronucleated cell frequency (result in words)” value ([3]; CTLL-2 cells) was “positive response in terms of clastogenesis”. For the same compound, the “formation of micronuclei / micronucleated cell frequency (result in words)” value [4] was “neither apoptosis nor genotoxicity is observed”.

In the case of `Cc1c2ccccc2c(C)c2c1ccc1ccccc12` [7,12-dimethylbenz[a]anthracene], the “formation of micronuclei (result in words)” value [5] is reported as “induce the formation of micronuclei”, the “formation of micronuclei (result in words)” value [6] is reported as “induce the formation of micronuclei” and the “apoptosis (result in words)” value [7] is reported as “apoptosis only on the CTLL-2 cells”. For the same compound, the “apoptosis (result in words)” value [8] was “apoptosis only on the CTLL-2 cells”.

In the case of `C[C@H]1CCC/C=C/[C@@H]2C[C@H](O)C[C@H]2[C@H](O)/C=C/C(=O)O1` [brefeldin A], the “induction of apoptosis (result in words)” value [1, 14] is reported as “induce apoptosis”.

In the case of `CN1C(=O)[C@]23CC4=CC=C[C@H](O)[C@H]4N2C(=O)[C@@]1(CO)SS3` [gliotoxin], the level of apoptosis [1] is reported as 45%, the apoptosis ([1]; CTLL-2, in parallel to metaphase analysis, […], controls 5%) is reported as 17% and the “lowest concentration with apoptosis different from control (p=0.01)” value ([1]; CTLL-2 cells) is reported as 100 nM. For the same compound, the aberrant cells ([9]; from 50 μM of gliotoxin, control 1%) was 10%, the “chromosomal aberrations (result in words)” value ([9]; CTLL-2 cells) was “positive response” and the “lowest concentration with aberrations / positive response in terms of clastogenesis” value ([9]; CTLL-2 cells) was 50 µM. For the same compound, the “induction of apoptosis (result in words)” value [2] was “apoptosis was maintained at a lower rate”, the “lowest concentration with increase in micronuclei versus control” value ([3]; CTLL-2 cells) was 100 nM and the “number of aberrant (micronucleated) cells” value ([3]; nontransfected CTLL-2, gliotoxin at the highest dose (200 nM), increased from 5‰) was 20 ‰. The “formation of micronuclei / micronucleated cell frequency (result in words)” value [4] was “as was the number of micronucleated cells”.

With `CC[C@@]1(O)C(=O)OCc2c1cc1n(c2=O)Cc2cc3ccccc3nc2-1` [camptothecin] the “induction of apoptosis (result in words)” value [1, 14] was “induce apoptosis”.

For `C[C@@H]1C[C@H]2[C@@H]3CCC4=CC(=O)C=C[C@]4(C)[C@@]3(F)[C@@H](O)C[C@]2(C)[C@@]1(O)C(=O)CO` [dexamethasone], the “concentration from which apoptosis increased” value [10] was 250 µM, the apoptosis ([10]; from 250 μM of dexamethasone, control approximately 16%) was 40% and the “concentration from which apoptosis increased” value ([1]; CTLL-2, in parallel to metaphase analysis) was 37.5 nM. The apoptosis ([1]; CTLL-2, in parallel to metaphase analysis, 150 nM dexamethasone) was 30%, the apoptosis ([1]; CTLL-2, in parallel to metaphase analysis, from 37.5 nM of dexamethasone, control approximately 7%) was 18% and the “percentage of apoptotic cells” value ([1]; CTLL-2, Annexin-V-FITC and YOPRO-1, maximum from 50 nM of dexamethasone, negative control 6%) was 30.5%. The aberrant cells ([9]; from 37.5 nM of dexamethasone, control 2%) was 8%, the “chromosomal aberrations (result in words)” value ([9]; CTLL-2 cells) was “chromosome and chromatid breaking but no exchange” and the “lowest concentration with number of aberrant cells statistically different (p=0.05) from control” value ([9]; CTLL-2 cells) was 37.5 nM. The aberrant cells [11] was 11% and the micronucleated cells ([12]; 50 nM) was 60 ‰.

`CCN(CC)CCCC(C)Nc1c2ccc(Cl)cc2nc2ccc(OC)cc12` (stereo not drawn) [quinacrin] was tested, and the “induction of apoptosis (result in words)” value [1, 14] was “induce apoptosis”.

In the case of `COc1cc(/C=C/C(=O)CC(=O)/C=C/c2ccc(O)c(OC)c2)ccc1O` [curcumin], the “induction of apoptosis (result in words)” value [1, 14] is reported as “induce apoptosis”.

In the case of `CC(=O)O[C@H]1C(=O)[C@@]2(C)[C@H]([C@H](OC(=O)c3ccccc3)[C@]3(O)C[C@H](OC(=O)[C@H](O)[C@@H](NC(=O)c4ccccc4)c4ccccc4)C(C)=C1C3(C)C)[C@]1(OC(C)=O)CO[C@@H]1C[C@@H]2O` [taxol], the “induction of apoptosis (result in words)” value [1, 14] is reported as “induce apoptosis”, the “apoptosis at the dose that increases micronuclei” value ([1]; CTLL-2 cells, taxol 25 nM) is reported as “do not cause apoptosis” and the “concentration at which the difference in number of micronuclei between CTLL-2 and CTLL-2-bcl2 lines appears” value [13] is reported as 25 nM. For the same compound, the “lowest concentration with increase in number of micronuclei” value [13] was 50 nM, the “apoptosis at the dose that increases micronuclei” value ([2]; taxol 50 nM) was “do not cause apoptosis” and the “lowest concentration with increase in micronuclei versus control” value [12] was 25 nM.

With `O=P1(N(CCCl)CCCl)NCCCO1` (stereo not drawn) [cyclophosphamide] the “formation of micronuclei (result in words)” value [5] was “induce the formation of micronuclei”, the “formation of micronuclei (result in words)” value [6] was “induce the formation of micronuclei” and the “apoptosis (result in words)” value [7] was “apoptosis only on the CTLL-2 cells”. The “apoptosis (result in words)” value [8] was “apoptosis only on the CTLL-2 cells”.

`CN(N=O)C(N)=O` [MNU, N-methyl-N-nitrosourea] was tested, and the “induction of apoptosis (result in words)” value [1, 14] was “without inducing apoptosis”, the “induction of apoptosis (result in words)” value [2] was “without inducing apoptosis” and the “formation of micronuclei / micronucleated cell frequency (result in words)” value ([3]; CTLL-2 cells) was “positive response”. The “formation of micronuclei / micronucleated cell frequency (result in words)” value [4] was “positive response”.

In the case of `COC(=O)Nc1nc2ccc(C(=O)c3cccs3)cc2[nH]1` [Nocodazole, nocodazole], the “induction of apoptosis (result in words)” value [1, 14] is reported as “induce apoptosis”.

For `CN[C@@H]1C[C@H]2O[C@@](C)([C@@H]1OC)n1c3ccccc3c3c4c(c5c6ccccc6n2c5c31)C(=O)NC4` [staurosporine], the “induction of apoptosis (result in words)” value [1, 14] was “induction of apoptosis”, the “induction of apoptosis (result in words)” value [2] was “neither apoptosis nor genotoxicity is observed” and the “formation of micronuclei / micronucleated cell frequency (result in words)” value ([3]; CTLL-2 cells) was “positive response in terms of clastogenesis”. The “formation of micronuclei / micronucleated cell frequency (result in words)” value [4] was “neither apoptosis nor genotoxicity is observed”.

For thapsigargine, the “induction of apoptosis (result in words)” value [1, 14] was “induce apoptosis”.

`CSCCC=O` [methional] was tested, and the “level of apoptotic cells” value ([1]; CTLL-2, methional at the highest dose (150 μM), control 6.5%) was 24%, the “lowest concentration with statistically significant (p=0.01) induction of apoptosis” value ([1]; CTLL-2 cells, first dose) was 60.8 µM and the “chromosomal aberrations (result in words)” value ([9]; CTLL-2 cells) was “structural aberrations, such as breaks or gaps”. For the same compound, the “lowest concentration with aberrations / positive response in terms of clastogenesis” value ([9]; CTLL-2 cells) was 18.75 µM, the “cells bearing chromosomal aberrations” value ([9]; nontransfected CTLL-2, methional 18.75 μM, control 3%) was 13% and the “induction of apoptosis (result in words)” value [2] was “neither apoptosis nor micronuclei appeared”. For the same compound, the “lowest concentration with statistically significant (p=0.01) micronucleated cells” value [12] was 60.8 µM and the “number of micronucleated cells” value ([12]; 150 μM) was 98 ‰.

For `O=c1c(-c2ccc(O)cc2)coc2cc(O)cc(O)c12` [genistein], the “induction of apoptosis (result in words)” value [1, 14] was “induce apoptosis”.

For `CCOS(C)(=O)=O` [ethyl methanesulfonate], the “induction of apoptosis (result in words)” value [1, 14] was “without inducing apoptosis” and the “induction of apoptosis (result in words)” value [2] was “without inducing apoptosis”.

For `COS(C)(=O)=O` [MMS, Methyl methanesulfonate], the “induction of apoptosis (result in words)” value [1, 14] was “apoptotic phenomenon is not triggered” and the “induction of apoptosis (result in words)” value [2] was “apoptotic phenomenon is not triggered”.

For mitomycin C, the “formation of micronuclei / micronucleated cell frequency (result in words)” value ([3]; CTLL-2 cells) was “micronucleated cell frequencies increase significantly with the dose” and the “formation of micronuclei / micronucleated cell frequency (result in words)” value [4] was “micronucleated cell frequencies increase significantly with the dose”.

`CN1C(=O)CN=C(c2ccccc2)c2cc(Cl)ccc21` [diazepam] was tested, and the “induction of apoptosis (result in words)” value [1] was “without inducing apoptosis”, the “induction of apoptosis (result in words)” value [2] was “without inducing apoptosis” and the “formation of micronuclei / micronucleated cell frequency (result in words)” value ([3]; CTLL-2 cells) was “positive response”. The “formation of micronuclei / micronucleated cell frequency (result in words)” value [4] was “positive response”.
